Where a SMILES comes first, the peptide text is derived from it.
Assays:
Candida albicans UP10 = format: cell-based; settings: for EC50: UP10, 6 h; for Anti-Candida activity (%) at 100 µg/mL: C7/pc42 H2 alanine-substituted derivatives, 37°C, 6 h, CFU assay, triplicate; for EC50asd/EC50H2: anti-Candida EC50 of the derivative relative to C7/pc42 H2
Description: The alanine substituted derivatives (asd), defined according to the position held by the alanine-substituted aminoacid, were tested in the same biological assays to critically establish the functional relevance of each residue [5]. In vitro microbicidal activity of CDR peptides and selected asd against C. albicans UP 10 (clinical isolate from the fungi collection of the University of Parma) and C. albicans NCPF 3153 (National Collection of Pathogenic Fungi, Bristol, UK) were used for the in vitro experiments.
The microbicidal activity of synthetic CDRs against C. albicans strains was preliminarily evaluated by testing 100 µg/mL of each synthetic peptide by colony forming unit (CFU) assays as previously described [5]. Briefly, 10 µL of a distilled water suspension containing ∼5×10^4/mL germinating yeast cells were added to 90 µL of distilled water containing the synthetic peptide to be tested. Yeast suspensions were incubated at 37°C for 6 h. After incubation, the cell suspensions were plated on Sabouraud dextrose agar, incubated at 30°C and observed for CFU determination after 48–72 hours. Each assay was carried out in triplicate. […] EC50 was calculated by nonlinear regression analysis using Graph Pad Prism 4.01 software, San Diego, CA, USA.

[1] = tested on: B16F10-Nex2 murine melanoma cells; format: cell-based; settings: for EC50: 12 h
Description: Each peptide was tested in triplicate. After 12 h, the cytotoxic activities of the peptides were determined by measuring cell viability by Trypan Blue exclusion.

Compound	EC50 (Candida albicans UP10) [µM]	Anti-Candida activity (%) at 100 µg/mL (Candida albicans UP10) [%]	EC50asd/EC50H2 (Candida albicans UP10)	EC50 [1] [µM]	apoptotic activity in melanoma cells ([1]; data not shown)
N=C(N)NCCC[C@H](NC(=O)[C@H](CCC(N)=O)NC(=O)[C@@H](N)CCC(N)=O)C(=O)N[C@@H](CO)C(=O)N[C@@H](CC(N)=O)C(=O)N[C@@H](Cc1c[nH]c2ccccc12)C(=O)N1CCC[C@H]1C(=O)N[C@@H](CCCNC(=N)N)C(=O)N[C@@H](CO)C(=O)O [HuA L3] (H-QQRSNWPRS-OH)	5.11				
CC(C)C[C@H](NC(=O)[C@H](CC(N)=O)NC(=O)[C@H](CO)NC(=O)[C@@H](NC(=O)[C@@H](N)CC(C)C)C(C)C)C(=O)N[C@@H](CCC(=O)O)C(=O)N[C@@H](CO)C(=O)O [pc42 L2] (H-LVSNLES-OH)	12				
CC(C)C[C@H](NC(=O)[C@H](CC(C)C)NC(=O)[C@H](CO)NC(=O)[C@H](CCC(N)=O)NC(=O)[C@H](CO)NC(=O)[C@H](CO)NC(=O)[C@@H](N)CCCCN)C(=O)N[C@@H](CC(N)=O)C(=O)N[C@@H](CO)C(=O)NCC(=O)N[C@@H](CC(N)=O)C(=O)N[C@@H](CCC(N)=O)C(=O)N[C@@H](CCCCN)C(=O)N[C@@H](CC(N)=O)C(=O)N[C@@H](Cc1ccc(O)cc1)C(=O)N[C@@H](CC(C)C)C(=O)N[C@H](C(=O)O)[C@@H](C)O [C7 L1] (H-KSSQSLLNSGNQKNYLT-OH)	15.2				
CC[C@H](C)[C@H](NC(=O)[C@@H](N)Cc1ccc(O)cc1)C(=O)N[C@@H](CO)C(=O)N[C@@H](CS)C(=O)N[C@@H](Cc1ccc(O)cc1)C(=O)N[C@@H](CC(N)=O)C(=O)NCC(=O)N[C@@H](C)C(=O)N[C@H](C(=O)N[C@@H](CO)C(=O)N[C@@H](Cc1ccc(O)cc1)C(=O)N[C@@H](CC(N)=O)C(=O)N[C@@H](CCC(N)=O)C(=O)N[C@@H](CCCCN)C(=O)N[C@@H](Cc1ccccc1)C(=O)N[C@@H](C)C(=O)O)[C@@H](C)O [K16A] (H-YISCYNGATSYNQKFA-OH; N-terminus and C-terminus assumed)	161	0	38.35	87	
N=C(N)NCCC[C@H](NC(=O)[C@H](CO)NC(=O)[C@H](CCCNC(=N)N)NC(=O)[C@@H]1CCCN1C(=O)[C@H](Cc1ccc(O)cc1)NC(=O)[C@H](CO)NC(=O)[C@H](Cc1ccc(O)cc1)NC(=O)[C@H](CC(=O)O)NC(=O)[C@@H](N)CC(N)=O)C(=O)O [C7 L3] (H-NDYSYPRSR-OH)	20.2				
CC[C@H](C)[C@H](NC(=O)[C@@H](N)Cc1ccc(O)cc1)C(=O)N[C@@H](CO)C(=O)N[C@@H](CS)C(=O)N[C@@H](Cc1ccc(O)cc1)C(=O)N[C@@H](CC(N)=O)C(=O)NCC(=O)N[C@@H](C)C(=O)N[C@H](C(=O)N[C@@H](CO)C(=O)N[C@@H](Cc1ccc(O)cc1)C(=O)N[C@@H](CC(N)=O)C(=O)N[C@@H](CCC(N)=O)C(=O)N[C@@H](CCCCN)C(=O)N[C@@H](C)C(=O)N[C@@H](CCCCN)C(=O)O)[C@@H](C)O [F15A] (H-YISCYNGATSYNQKAK-OH; N-terminus and C-terminus assumed)	0.904	100.00	0.22	1000	
CC[C@H](C)[C@H](NC(=O)[C@@H](N)Cc1ccc(O)cc1)C(=O)N[C@@H](CO)C(=O)N[C@@H](CS)C(=O)N[C@@H](Cc1ccc(O)cc1)C(=O)N[C@@H](CC(N)=O)C(=O)NCC(=O)N[C@@H](C)C(=O)N[C@H](C(=O)N[C@@H](CO)C(=O)N[C@@H](C)C(=O)N[C@@H](CC(N)=O)C(=O)N[C@@H](CCC(N)=O)C(=O)N[C@@H](CCCCN)C(=O)N[C@@H](Cc1ccccc1)C(=O)N[C@@H](CCCCN)C(=O)O)[C@@H](C)O [Y11A] (H-YISCYNGATSANQKFK-OH; N-terminus and C-terminus assumed)	47.6	55.70	11.35	113	
CC[C@H](C)[C@H](NC(=O)[C@H](C)N)C(=O)N[C@@H](CO)C(=O)N[C@@H](CS)C(=O)N[C@@H](Cc1ccc(O)cc1)C(=O)N[C@@H](CC(N)=O)C(=O)NCC(=O)N[C@@H](C)C(=O)N[C@H](C(=O)N[C@@H](CO)C(=O)N[C@@H](Cc1ccc(O)cc1)C(=O)N[C@@H](CC(N)=O)C(=O)N[C@@H](CCC(N)=O)C(=O)N[C@@H](CCCCN)C(=O)N[C@@H](Cc1ccccc1)C(=O)N[C@@H](CCCCN)C(=O)O)[C@@H](C)O [Y1A] (H-AISCYNGATSYNQKFK-OH; N-terminus and C-terminus assumed)	6.21	99.37	1.48	71.4	
CC[C@H](C)[C@H](NC(=O)[C@@H](N)Cc1ccc(O)cc1)C(=O)N[C@@H](CO)C(=O)N[C@@H](CS)C(=O)N[C@@H](Cc1ccc(O)cc1)C(=O)N[C@@H](CC(N)=O)C(=O)NCC(=O)N[C@@H](C)C(=O)N[C@H](C(=O)N[C@@H](C)C(=O)N[C@@H](Cc1ccc(O)cc1)C(=O)N[C@@H](CC(N)=O)C(=O)N[C@@H](CCC(N)=O)C(=O)N[C@@H](CCCCN)C(=O)N[C@@H](Cc1ccccc1)C(=O)N[C@@H](CCCCN)C(=O)O)[C@@H](C)O [S10A] (H-YISCYNGATAYNQKFK-OH; N-terminus and C-terminus assumed)	13.2	100.00	3.16	119	
CC[C@H](C)[C@H](NC(=O)[C@@H](N)Cc1ccc(O)cc1)C(=O)N[C@@H](CO)C(=O)N[C@@H](C)C(=O)N[C@@H](Cc1ccc(O)cc1)C(=O)N[C@@H](CC(N)=O)C(=O)NCC(=O)N[C@@H](C)C(=O)N[C@H](C(=O)N[C@@H](CO)C(=O)N[C@@H](Cc1ccc(O)cc1)C(=O)N[C@@H](CC(N)=O)C(=O)N[C@@H](CCC(N)=O)C(=O)N[C@@H](CCCCN)C(=O)N[C@@H](Cc1ccccc1)C(=O)N[C@@H](CCCCN)C(=O)O)[C@@H](C)O [C4A] (H-YISAYNGATSYNQKFK-OH; N-terminus and C-terminus assumed)	8.23	94.51	1.96	67.5	
CSCC[C@H](NC(=O)[C@H](Cc1ccc(O)cc1)NC(=O)[C@H](CO)NC(=O)[C@H](Cc1ccc(O)cc1)NC(=O)CNC(=O)[C@H](CO)NC(=O)[C@@H](NC(=O)[C@H](CO)NC(=O)[C@@H](NC(=O)[C@H](CO)NC(=O)[C@H](CCCCN)NC(=O)[C@H](CO)NC(=O)[C@H](C)NC(=O)[C@H](CCCNC(=N)N)NC(=O)[C@@H](N)Cc1ccc(O)cc1)C(C)C)[C@@H](C)O)C(=O)N[C@@H](Cc1c[nH]cn1)C(=O)O [pc42 L1] (H-YRASKSVSTSGYSYMH-OH)	0.78				
CC[C@H](C)[C@H](NC(=O)[C@@H](N)Cc1ccc(O)cc1)C(=O)N[C@@H](C)C(=O)N[C@@H](CS)C(=O)N[C@@H](Cc1ccc(O)cc1)C(=O)N[C@@H](CC(N)=O)C(=O)NCC(=O)N[C@@H](C)C(=O)N[C@H](C(=O)N[C@@H](CO)C(=O)N[C@@H](Cc1ccc(O)cc1)C(=O)N[C@@H](CC(N)=O)C(=O)N[C@@H](CCC(N)=O)C(=O)N[C@@H](CCCCN)C(=O)N[C@@H](Cc1ccccc1)C(=O)N[C@@H](CCCCN)C(=O)O)[C@@H](C)O [S3A] (H-YIACYNGATSYNQKFK-OH; N-terminus and C-terminus assumed)	3.12	100.00	0.74	64.9	
CC[C@H](C)[C@H](NC(=O)[C@@H](N)Cc1ccc(O)cc1)C(=O)N[C@@H](CO)C(=O)N[C@@H](CS)C(=O)N[C@@H](Cc1ccc(O)cc1)C(=O)N[C@@H](CC(N)=O)C(=O)NCC(=O)N[C@@H](C)C(=O)N[C@H](C(=O)N[C@@H](CO)C(=O)N[C@@H](Cc1ccc(O)cc1)C(=O)N[C@@H](C)C(=O)N[C@@H](CCC(N)=O)C(=O)N[C@@H](CCCCN)C(=O)N[C@@H](Cc1ccccc1)C(=O)N[C@@H](CCCCN)C(=O)O)[C@@H](C)O [N12A] (H-YISCYNGATSYAQKFK-OH; N-terminus and C-terminus assumed)	6.48	100.00	1.55	125	
CC[C@H](C)[C@H](NC(=O)[C@@H](N)Cc1ccc(O)cc1)C(=O)N[C@@H](CO)C(=O)N[C@@H](CS)C(=O)N[C@@H](Cc1ccc(O)cc1)C(=O)N[C@@H](CC(N)=O)C(=O)N[C@@H](C)C(=O)N[C@@H](C)C(=O)N[C@H](C(=O)N[C@@H](CO)C(=O)N[C@@H](Cc1ccc(O)cc1)C(=O)N[C@@H](CC(N)=O)C(=O)N[C@@H](CCC(N)=O)C(=O)N[C@@H](CCCCN)C(=O)N[C@@H](Cc1ccccc1)C(=O)N[C@@H](CCCCN)C(=O)O)[C@@H](C)O [G7A] (H-YISCYNAATSYNQKFK-OH; N-terminus and C-terminus assumed)	7.31	100.00	1.74	63.2	
C[C@H](NC(=O)CNC(=O)[C@H](CC(N)=O)NC(=O)[C@H](Cc1ccc(O)cc1)NC(=O)[C@H](CS)NC(=O)[C@H](CO)NC(=O)[C@H](C)NC(=O)[C@@H](N)Cc1ccc(O)cc1)C(=O)N[C@H](C(=O)N[C@@H](CO)C(=O)N[C@@H](Cc1ccc(O)cc1)C(=O)N[C@@H](CC(N)=O)C(=O)N[C@@H](CCC(N)=O)C(=O)N[C@@H](CCCCN)C(=O)N[C@@H](Cc1ccccc1)C(=O)N[C@@H](CCCCN)C(=O)O)[C@@H](C)O [I2A] (H-YASCYNGATSYNQKFK-OH; N-terminus and C-terminus assumed)	6.25	99.77	1.49	73.5	
CC[C@H](C)[C@H](NC(=O)[C@@H](N)Cc1ccc(O)cc1)C(=O)N[C@@H](CO)C(=O)N[C@@H](CS)C(=O)N[C@@H](Cc1ccc(O)cc1)C(=O)N[C@@H](CC(N)=O)C(=O)NCC(=O)N[C@@H](C)C(=O)N[C@@H](C)C(=O)N[C@@H](CO)C(=O)N[C@@H](Cc1ccc(O)cc1)C(=O)N[C@@H](CC(N)=O)C(=O)N[C@@H](CCC(N)=O)C(=O)N[C@@H](CCCCN)C(=O)N[C@@H](Cc1ccccc1)C(=O)N[C@@H](CCCCN)C(=O)O [T9A] (H-YISCYNGAASYNQKFK-OH; N-terminus and C-terminus assumed)	3.8	100.00	0.91	60.2	
SYNQKFK [C-terminal peptide of C7/pc42 H2]					not apoptotic by itself

From PMC2396520, “Antibody Complementarity-Determining Regions (CDRs) Can Display Differential Antimicrobial, Antiviral and Antitumor Activities” (PLoS ONE, 2008)
